The results in this text go back to patent US20080200467A1, “SOLUBLE EPOXIDE HYDROLASE INHIBITORS” (Arete Therapeutics, Inc., priority 2006, published 2008).

The first assay relates to soluble epoxide hydrolase (sEH). As to the kind of experiment: Fluorescent Assay for Mouse and Human Soluble Epoxide Hydrolase (CMNPC substrate). The following applies: Concentration 50 nM. The assay is classed as biochemical. An excerpt: Fluorescent Assay for Mouse and Human Soluble Epoxide Hydrolase Recombinant mouse sEH (MsEH) and human sEH (HsEH) were produced in a baculovirus expression system as previously reported. Grant et al., J. Biol. Chem., 268:17628-17633 (1993); Beetham et al., Arch. Biochem. Biophys., 305:197-201 (1993). The expressed proteins were purified from cell lysate by affinity chromatography. Wixtrom et al., Anal. Biochem., 169:71-80 (1988). Protein concentration was quantified using the Pierce BCA assay using bovine serum albumin as the calibrating standard. The preparations were at least 97% pure as judged by SDS-PAGE and scanning densitometry. They contained no detectable esterase or glutathione transferase activity which can interfere with the assay. The assay was also evaluated with similar results in crude cell lysates or homogenate of tissues. The IC50s for each inhibitor were according to the following procedure: [drawing 218] […] Jones P. D. et. al.; Analytical Biochemistry 2005; 343: pp. 66-75) Bis/Tris HCl 25 mM pH 7.0 containing 0.1 mg/mL of BSA (buffer […] at 0.25 mM in DMSO. Mother solution of enzyme in buffer A (Mouse sEH at 6 μg/mL and Human sEH at 5 μg/mL). Inhibitor dissolved in DMSO at the appropriate concentration. In a black 96 well plate, fill all the wells with 150 μL of buffer A. Add 2 μL of DMSO in well A2 and A3, and then add 2 μL of inhibitor solution in A1 and A4 through A12. Add 150 μL of buffer A in row A, then mix several time and transfer 150 μL to row B. Repeat this operation up to row H. The 150 μL removed from row H is discarded. Add 20 μL of buffer A in column 1 and 2, then add 20 μL of enzyme solution to column 3 to 12. Incubate the plate for 5 minutes in the plate reader at 30° C. During incubation prepare the working solution of substrate by mixing 3.68 mL of buffer A (4×0.920 mL) with 266 μL (2×133 μL) of substrate solution). At t=0, add 30 μL of working substrate solution with multi-channel pipette labeled “Briggs 303” and start the reading ([S]final: 5 μM). Read with ex: 330 nm (20 nm) and em: 465 nm (20 nm) every 30 second for 10 minutes. The velocities are used to analyze and calculate the IC50s. Tables 4-6 show the activity of compounds when tested with the assay at 50, 500, 5000, 50000, and 500000 nM.
The term % Inhibition denotes the relative decrease from the control value, in per cent. In the case of `O=C(NCCc1ccc(OCc2ccccc2)cc1)C(O)CCC12CC3CC(CC(C3)C1)C2` (stereo not shown) [Compound 129, 4-Adamantan-1-yl-N-[2-(4-benzyloxy-phenyl)-ethyl]-2-hydroxy-butyramide], the “% Inhibition” value is 70%.

The same assay, now with this note: Concentration 500 nM.
`O=C(NCC12CC3CC(CC(C3)C1)C2)C(O)Cc1ccc(OCc2ccccc2)cc1` (stereo not shown) [Compound 106, N-Adamantan-1-ylmethyl-3-(4-benzyloxy-phenyl)-2-hydroxy-propionamide]: the “% Inhibition” value was found to be 82%.
On to `O=C(Nc1cccc(OCCCN2CCOCC2)c1)C(=O)c1ccc(C(F)(F)F)cc1` [Compound 1, N-[3-(3-Morpholin-4-yl-propoxy)-phenyl]-2-oxo-2-(4-trifluoromethyl-phenyl)-acetamide], for which the “% Inhibition” value is 65%.
Same read-out and setting: under `COC(=O)CCCCCCCCCCCNC(=O)C(O)CCc1ccc(C(F)(F)F)cc1` (stereo not shown) [Compound 162, Methyl 12-(2-hydroxy-4-(4-(trifluoromethyl)phenyl)butanamido)dodecanoate] stands 78%.

Staying with this assay, now noted: Concentration 5000 nM.
On to `O=C(Nc1cccc(OCc2ccccc2)c1)C(=O)c1ccc(C(F)(F)F)cc1` [Compound 5, N-(3-Benzyloxy-phenyl)-2-oxo-2-(4-trifluoromethyl-phenyl)-acetamide], for which the “% Inhibition” value amounted to 71%.
The same measure, in the same setting: the same measure for `O=C(NCCc1ccc(OCc2ccccc2)cc1)C(O)CC12CC3CC(CC(C3)C1)C2` (stereo not shown) [Compound 147, N-(4-(Benzyloxy)phenethyl)-3-adamantan-1-yl-2-hydroxypropanamide]: 93%.
Turning to `O=C(Nc1ccc(-n2ccnc2)cc1)C(=O)c1ccc(C(F)(F)F)cc1` [Compound 8, N-(4-Imidazol-1-yl-phenyl)-2-oxo-2-(4-trifluoromethyl-phenyl)-acetamide], the “% Inhibition” value is reported as 85%.
The same measure, in the same setting: under `Cc1ccc(S(=O)(=O)N2CCC(NC(=O)C(O)CCc3ccc(C(F)(F)F)cc3)CC2)cc1` (stereo not shown) [Compound 136, 2-Hydroxy-N-(1-tosylpiperidin-4-yl)-4-(4-(trifluoromethyl)phenyl)butanamide] stands 83%; under `CNS(=O)(=O)c1ccc(CCNC(=O)C(O)CCC23CC4CC(CC(C4)C2)C3)cc1` (stereo not shown) [Compound 156, 4-Adamantan-1-yl-2-hydroxy-N-(4-(N-methylsulfamoyl)phenethyl)butanamide], 79%.
Turning to `O=C(NCCc1ccc(OCc2ccccc2)cc1)C(O)CCc1ccc(C(F)(F)F)cc1` (stereo not shown) [Compound 139, N-(4-(Benzyloxy)phenethyl)-2-hydroxy-4-(4-(trifluoromethyl)phenyl)butanamide], the “% Inhibition” value is on record as 70%.
Regarding `O=C(CC12CC3CC(CC(C3)C1)C2)C(=O)Nc1cccc(OCc2ccccc2)c1` [Compound 15, 3-Adamantan-1-yl-N-(3-benzyloxy-phenyl)-2-oxo-propionamide], the “% Inhibition” value was found to be 86%.
In the case of `O=C(Nc1cccc(OCc2ccccc2)c1)C(O)CC1CCCCC1` (stereo not shown) [Compound 126, N-(3-Benzyloxy-phenyl)-3-cyclohexyl-2-hydroxy-propionamide], the “% Inhibition” value is given as 78%.
Take `O=C(NC12CC3CC(CC(C3)C1)C2)C(O)c1cccc(OCc2ccccc2)c1` (stereo not shown) [Compound 103, N-Adamantan-1-yl-2-(3-benzyloxy-phenyl)-2-hydroxy-acetamide]: the “% Inhibition” value worked out at 87%.
For `O=C(Nc1ccc(-n2ccnc2)cc1)C(=O)C12CC3CC(CC(C3)C1)C2` [Compound 21], the “% Inhibition” value is on record as 93%.
For the compound `O=C(Nc1ccc(OCc2ccccc2)cc1)C(O)C12CC3CC(CC(C3)C1)C2` (stereo not shown) [Compound 118, 2-Adamantan-1-yl-N-(4-benzyloxy-phenyl)-2-hydroxy-acetamide], the “% Inhibition” value was determined as 95%.
For the compound `O=C(NCc1ccc(OCc2ccccc2)cc1)C(O)C12CC3CC(CC(C3)C1)C2` (stereo not shown) [Compound 134, N-(4-(Benzyloxy)benzyl)-2-adamantan-1-yl-2-hydroxyacetamide], the “% Inhibition” value is on record as 83%.
`COc1ccc(C(=O)C(=O)NCC23CC4CC(CC(C4)C2)C3)cc1` [Compound 22]: the “% Inhibition” value is reported as 78%.
For the compound `O=C(NCCc1ccc(OCc2ccccc2)cc1)C(O)C12CC3CC(CC(C3)C1)C2` (stereo not shown) [Compound 150, N-(4-(Benzyloxy)phenethyl)-2-adamantyl-2-hydroxyacetamide], the “% Inhibition” value worked out at 87%.
On the same count and under the same terms, under `COc1ccc(C(O)C(=O)NCC23CC4CC(CC(C4)C2)C3)cc1` (stereo not shown) [Compound 120, N-Adamantan-1-ylmethyl-2-hydroxy-2-(4-methoxy-phenyl)-acetamide] stands 79%; under `O=C(NCCc1ccc(OCc2ccccc2)cc1)C(O)CCC1CCCCC1` (stereo not shown) [Compound 141, N-(4-(Benzyloxy)phenethyl)-4-cyclohexyl-2-hydroxybutanamide], 91%.

The same assay, now with this note: Concentration 50000 nM.
Take `Cc1ccc(S(=O)(=O)N2CCC(NC(=O)C(=O)c3ccc(C(F)(F)F)cc3)CC2)cc1` [Compound 9, 2-Oxo-N-[1-(toluene-4-sulfonyl)-piperidin-4-yl]-2-(4-trifluoromethyl-phenyl)-acetamide]: the “% Inhibition” value is on record as 72%.
Turning to `O=C(Nc1ccc(OCc2ccccc2)cc1)C(O)CC1CCCCC1` (stereo not shown) [Compound 132, N-(4-(Benzyloxy)phenyl)-3-cyclohexyl-2-hydroxypropanamide], the “% Inhibition” value stood at 65%.
Same read-out and setting: under `O=C(Nc1ccc(OCc2ccccc2)cc1)C(O)CC12CC3CC(CC(C3)C1)C2` (stereo not shown) [Compound 117, 3-Adamantan-1-yl-N-(4-benzyloxy-phenyl)-2-hydroxy-propionamide] stands 81%.
Take `O=C(Nc1ccc(C(=O)NCCN2CCOCC2)cc1)C(=O)c1ccc(C(F)(F)F)cc1` [Compound 2, N-(2-Morpholin-4-yl-ethyl)-4-[2-oxo-2-(4-trifluoromethyl-phenyl)-acetylamino]-benzamide]: the “% Inhibition” value is given as 82%.
On to `Cc1ccc(S(=O)(=O)N2CCC(NC(=O)C(O)Cc3ccc(C(F)(F)F)cc3)CC2)cc1` (stereo not shown) [Compound 142, 2-Hydroxy-N-(1-tosylpiperidin-4-yl)-3-(4-(trifluoromethyl)phenyl)propanamide], for which the “% Inhibition” value was determined as 84%.
For `CCCC(=O)N1CCC(NC(=O)C(=O)C2CCCCC2)CC1` [Compound 16, N-(1-Butyryl-piperidin-4-yl)-2-cyclohexyl-2-oxo-acetamide], the “% Inhibition” value was found to be 62%.
On to `COC1CCC(NC(=O)C(=O)c2ccc(C(F)(F)F)cc2)CC1` (stereo not shown) [Compound 4, N-(4-Methoxy-cyclohexyl)-2-oxo-2-(4-trifluoromethyl-phenyl)-acetamide], for which the “% Inhibition” value worked out at 87%.
In the case of `O=C(Nc1ccc(-n2ccnc2)cc1)C(O)C1CCCCC1` (stereo not shown) [Compound 112, 2-Cyclohexyl-2-hydroxy-N-(4-imidazol-1-yl-phenyl)-acetamide], the “% Inhibition” value is 80%.
On to `CCCC(=O)N1CCC(NC(=O)C(O)c2ccc(C(F)(F)F)cc2)CC1` (stereo not shown) [Compound 114, N-(1-Butyryl-piperidin-4-yl)-2-hydroxy-2-(4-trifluoromethyl-phenyl)-acetamide], for which the “% Inhibition” value amounted to 74%.
Take `COC1CCC(NC(=O)C(O)c2ccc(C(F)(F)F)cc2)CC1` (stereo not shown) [Compound 104, 2-Hydroxy-N-(4-methoxy-cyclohexyl)-2-(4-trifluoromethyl-phenyl)-acetamide]: the “% Inhibition” value is reported as 79%.
With `O=C(Nc1cccc(OCc2ccccc2)c1)C(=O)C1CCCCC1` [Compound 12, N-(3-Benzyloxy-phenyl)-2-cyclohexyl-2-oxo-acetamide], the “% Inhibition” value came out at 99%.
